According to the METLIN SMRT retention time set (Domingo-Almenara et al. 2019):

Test: gradient 5% acetonitrile 3 min, to 50% in 2 min, to 85% in 15 min, held 3 min, 100 µL/min
Conditions: column: Zorbax Extend-C18 2.1 x 50 mm; eluents: water / acetonitrile, 0.1% formic acid
Outline: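 Retention times come from adduct peaks that were picked computationally and then checked by hand. The standards, pure and pooled in mixtures of ~100 molecules, were run on a Zorbax Extend-C18 column (2.1 × 50 mm, 1.8 μm) at 100 μL/min with water and acetonitrile, each with 0.1% formic acid. Detection was by quadrupole time-of-flight mass spectrometry in positive and negative ionization mode, with a dead volume of 40 μL and a dwell volume of 900 μL.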

Row | RP-LC retention time | Structure (SMILES)
1 | 1010 s | Cc1ccc(-c2ccc(-n3nc(C)c(S(=O)(=O)Nc4ccc5c(c4)OCCO5)c3C)nn2)cc1
2 | 873 s | CC(C)(C)c1ccc(C(=O)NCc2ccco2)cc1
3 | 593 s | Cc1noc([C@@H]2CN(C(=O)Cc3c(C)noc3C)C[C@H]2C(N)=O)n1
4 | 568 s | Cc1ccc(Oc2cccc(C(=O)Nc3ccc(-c4cn5ccccc5n4)cc3)c2)nn1
5 | 835 s | CCCN(CC1CCOC1)C(=O)Nc1cccc(Cl)c1C (stereo not given)
6 | 846 s | CCN1C(=O)CCc2cc(NS(=O)(=O)c3c(C)cccc3Cl)ccc21
7 | 1120 s | N#Cc1ccccc1NC(=O)CSc1cc(N2CCN(c3ccccc3F)CC2)ncn1
8 | 748 s | Cc1ccc(-c2nocc2CCC(=O)O)cc1
9 | 977 s | O=C(O)Cc1sc(Nc2ccc(F)c(F)c2F)nc1-c1ccccc1
10 | 830 s | Cc1ccc(C2Cn3cnc(C(=O)N4CCC(C(=O)NCc5ccc(F)cc5F)CC4)c3CO2)cc1 (stereo not given)
11 | 762 s | Cc1cc([N+](=O)[O-])nn1CC(=O)Nc1c(F)cc(F)cc1Br
12 | 664 s | COCCNC(=O)c1ccc(CS(=O)Cc2ccccc2Cl)o1 (stereo not given)
13 | 804 s | CC(=O)Nc1ccc(C2(C(=O)NCc3ccc(F)cc3Cl)CCC2)cc1
14 | 788 s | Cc1cc(C)cc(NC(=O)N2CCC(N3CCN(Cc4ccc(F)cc4)C(=O)C3=O)CC2)c1
15 | 995 s | CC(C)c1noc(-c2cc(=O)n(CC(=O)Nc3ccc(F)cc3)c3ccccc23)n1
16 | 671 s | CC(C)NC(=O)C(=O)NCC(c1ccc2c(c1)CCCN2C)N1CCCCC1 (stereo not given)
17 | 860 s | CC1=C(c2cccc(Cl)c2)S(=O)(=O)N=C1N1CCCN(C(=O)c2cccs2)CC1
18 | 824 s | Cc1ccc(NC(=O)N2CCC3(CC2)N=C(c2ccccc2)C(=O)N3)cc1C
19 | 1180 s | Cc1ccc2c(c1)OCC(=O)N2Cc1nc(-c2cccc(Br)c2)no1
20 | 891 s | COc1ccc(-n2ccn3cc(-c4ccc(Br)cc4)nc3c2=O)cc1
21 | 571 s | Cc1c(C(=O)N2CCN(c3ccccn3)CC2)sc2nc3n(c(=O)c12)CCC3
22 | 1050 s | CCOC(=O)c1nc(N(CC)c2cccc(C)c2)c2ccccc2n1

Row | RP-LC retention time | Structure (SMILES)
23 | 676 s | Cc1ccc(Nc2c(-c3ccc(O)cc3)nc3c(C)cccn23)cc1
24 | 655 s | O=C(Cn1cnc2nc(N3CCC(C(=O)NC4CC4)CC3)sc2c1=O)Nc1cccc(F)c1
25 | 591 s | COc1cc(NC(=O)C2CCCN(C(=O)c3cc(-c4ccncc4)n[nH]3)C2)cc(OC)c1OC (stereo not given)
26 | 690 s | Cn1nc(C(=O)N2CCCC(c3nnc(-c4ccccc4F)s3)C2)ccc1=O (stereo not given)
27 | 879 s | O=C(c1ccc(-c2noc(C3CCC3)n2)cc1)N1CCCC1
28 | 537 s | CN(C)C[C@@H]1CN(Cc2ccccc2)C[C@H]1NS(=O)(=O)c1cccnc1
29 | 751 s | Cn1ncc2c3ccccc3n(CCCC(=O)NCc3ccc4c(c3)OCO4)c2c1=O
30 | 824 s | Cc1cc2c(cc1C(=O)NCCc1c[nH]c3ccccc13)OCCCO2
31 | 613 s | CCN1CCN(C(=O)CC(c2cc(OC)c(OC)c(OC)c2)N2Cc3ccccc3C2=O)CC1 (stereo not given)
32 | 1460 s | CCOc1ccc(C2c3[nH]c4ccccc4c3CCN2C(=O)CCC2CCCC2)cc1 (stereo not given)
33 | 1330 s | Cc1nn(-c2nc(-c3ccc(Cl)cc3)cs2)c(C)c1CC(=O)N1CCc2ccccc2C1
34 | 566 s | O=C(NCCCN1CCCC1)C1CCc2sc(C(=O)N3CCOCC3)cc2C1 (stereo not given)
35 | 637 s | CCc1ccccc1S(=O)(=O)Cc1ccc(C(=O)N2CCN(c3ccccn3)CC2)o1
36 | 1110 s | Cc1cccc(S(=O)(=O)N2CCC(c3noc(-c4cccc(F)c4)n3)CC2)c1
37 | 696 s | CCc1nncn1C1CCN(S(=O)(=O)c2cc(F)ccc2OC)CC1
38 | 569 s | COc1ccc(-c2csc3ncnc(NCCN4CCOCC4)c23)cc1
39 | 917 s | O=C1CC(c2noc(C3CCCC3)n2)CN1c1ccccc1 (stereo not given)
40 | 849 s | COC(=O)c1cccc(Nc2c(-c3ccc(C)cc3)nc3cnccn23)c1
41 | 893 s | CCOc1ccc(NC(=O)c2oc3cc(C)c(Cl)cc3c2C)c2cccnc12
42 | 621 s | CCOCC(=O)N1CCCn2cc(-c3ccccc3)nc21
43 | 850 s | Cc1noc(-c2cccc(OC3CN(C(=O)NC4CCCC4)C3)c2)n1
44 | 873 s | CCOCc1nc(C2CCCN(C(=O)C3(c4ccccc4)CC3)C2)no1 (stereo not given)

Row | RP-LC retention time | Structure (SMILES)
45 | 838 s | O=C(C1=CN(c2cccc(F)c2)c2cc(Cl)ccc2S1(=O)=O)N1CCCC1
46 | 926 s | O=C(NCCCCCCNC(=O)ON=C1CCCCC1)ON=C1CCCCC1
47 | 828 s | CCOC(=O)c1ccc(NC(=O)Cn2nc3c(N4CCSCC4)nccn3c2=O)cc1
48 | 762 s | CCOCCCNC(=O)c1nnc(-c2ccc(S(=O)(=O)N3CCCCC3)cc2)o1
49 | 738 s | CC(C)Oc1ccc(CNC(=O)c2nc(N3CCOCC3)c3ccccc3n2)cc1
50 | 940 s | Cc1cccc(C(=O)N2N=C(c3ccco3)CC2c2cccs2)c1 (stereo not given)
51 | 920 s | Cn1cc2c3c(cccc31)CN(C(=O)c1c(F)cccc1F)CC2
52 | 1010 s | O=C(NCC1CC1)c1nnn(Cc2ccc(Cl)cc2)c1-n1cccc1
53 | 768 s | Cc1ccc(C(=O)Nc2ccc(S(N)(=O)=O)cc2)cc1Br
54 | 884 s | COc1ccc(-c2nc3cnccn3c2Nc2ccc(Br)cc2)cc1OC
55 | 614 s | Cc1ccc(-c2nc3nc(C)cc(N(CCO)CCO)n3n2)cc1
56 | 711 s | O=C(CCS(=O)(=O)c1ccccc1)N1CCN(CC(F)(F)F)CC1
57 | 682 s | COCC(=O)NC1CCC12CCN(S(=O)(=O)C(C)C)CC2 (stereo not given)
58 | 830 s | CC(Cc1ccco1)NC(=O)CC1CCN(C(=O)c2ccc3nc(-c4ccccc4)oc3c2)CC1 (stereo not given)
59 | 807 s | COc1ccc(CN2N=C(C(=O)N3CCOCC3)S(=O)(=O)c3ccccc32)cc1F
60 | 562 s | O=C(NCCc1ccccc1)NCC1CCN(Cc2ccco2)CC1
61 | 1140 s | CCOC(=O)c1c(C)c(C(=O)C(C)N(C(=O)c2ccc(Cl)cc2)C2CC2)c(C)n1CC (stereo not given)
62 | 686 s | O=C(c1ccoc1)N1CCCC1Cc1noc(-c2cnccn2)n1 (stereo not given)
63 | 884 s | COc1ccc(-c2nnc(-c3ccc(Cl)c(S(=O)(=O)N4CCOCC4)c3)o2)cc1OC
64 | 814 s | CC(C)C(=O)Nc1cnc(-c2ccccc2)nc1
65 | 957 s | COc1ccc(-c2nnc(Cc3nc(-c4ccccc4C)no3)o2)cc1OC
66 | 1130 s | O=c1c2sccc2n(Cc2nc(-c3ccccc3)no2)c(=O)n1CCc1ccccc1

Row | RP-LC retention time | Structure (SMILES)
67 | 1310 s | Cn1c(=O)c(C(=O)N2CCN(c3ccccn3)CC2)nc2ccccc21
68 | 573 s | Cc1cc(C)c(C)c(S(=O)(=O)NCC(=O)NCc2ccco2)c1C
69 | 648 s | O=C(O)[C@@H]1OCC(=O)N(C2CC2)[C@H]1c1ccccc1
70 | 576 s | CCc1ccc(-c2cn3cc(C(=O)NCCN4CCN(CC)CC4)ccc3n2)cc1
71 | 642 s | CCOC(=O)C1=C(CN(C)Cc2ccccc2)NC(=O)NC1c1cccs1 (stereo not given)
72 | 1070 s | CC(C)N1C(=O)C(C)(C(=O)Nc2cccc(Cl)c2)Oc2cccnc21 (stereo not given)
73 | 592 s | Cc1nc2cc(N3CCCC(C(=O)NCCN4CCCCCC4)C3)cnc2nc1C (stereo not given)
74 | 839 s | COc1ccc(Cl)cc1NC(=O)c1cnc2sccn2c1=O
75 | 668 s | CCOC(=O)C1=C(CN2CCN(c3ccccn3)CC2)NC(=O)NC1c1ccc(OC(C)C)cc1 (stereo not given)
76 | 754 s | Cc1ccc(CNC(=O)C2(C)Cn3nc(C(=O)NCCC(C)C)cc3C(=O)N2C)cc1 (stereo not given)
77 | 1040 s | COc1ccc(OCc2nnc3sc(-c4ccc5ccccc5n4)nn23)cc1
78 | 1180 s | Cc1nn(C(=O)CCc2ccccc2)c(C)c1S(=O)(=O)N1CCCC1
79 | 694 s | CCN1CCN(Cc2ccc(C(=O)N3CCN(c4ccc(C)cc4)CC3)cc2)C(=O)C1=O
80 | 1080 s | FC(F)(F)c1cccc(-c2noc(Cc3nnc(-c4ccccc4)o3)n2)c1
81 | 713 s | O=C1CS(=O)C2(CCN(S(=O)(=O)Cc3ccccc3)CC2)N1CC1CC1 (stereo not given)
82 | 560 s | CN(C)CCNC(=O)c1ccc(-c2ccnc(N3CCCC3)n2)cc1
83 | 798 s | COc1ccc(C(=O)N2CCC(COc3ccc(C(=O)NC4CC4)cc3)CC2)cc1F
84 | 727 s | COC(=O)c1c(C)[nH]c(C(=O)N2CCC(CC(=O)NCc3ccc(F)cc3)CC2)c1C
85 | 642 s | COc1cc(OC)c(OC)cc1CN1CCC(C)(c2noc(C3CCOCC3)n2)CC1
86 | 706 s | O=C(Cn1c(-c2cccs2)cc2cc(Cl)ccc21)NCCN1CCOCC1
87 | 729 s | COc1ccc(NS(=O)(=O)c2c[nH]c3ncccc23)cc1Cl

Row | Structure (SMILES) | RP-LC retention time
88 | COC(C)C(O)(C(=O)OCC1=CCN2CC[C@H](O)[C@@H]12)C(C)C (stereo not given in full) | 644 s
89 | CCn1cc(C(=O)NCc2ccccc2)c2cccnc21 | 782 s
90 | CN1CCCc2cc(C(=O)N3CCC4(CC3)OCCO4)sc21 | 796 s
